Results published in publication PMC8876231, “Analogues of Natural Chalcones as Efficient Inhibitors of AKR1C3” (Metabolites, 2022).

How the values were obtained:
[1] = target: T1, AKR1C2 (Homo sapiens, UniProt P52895); assay: AKR1C2 inhibition assay (DHT to 3α-androstanediol); type: biochemical; settings: 10 µM compound, mean ± SD
T1 construct: Myc (N); expressed in transfected cells; host or cells: HEK293
T1 sequence (P52895 1-323): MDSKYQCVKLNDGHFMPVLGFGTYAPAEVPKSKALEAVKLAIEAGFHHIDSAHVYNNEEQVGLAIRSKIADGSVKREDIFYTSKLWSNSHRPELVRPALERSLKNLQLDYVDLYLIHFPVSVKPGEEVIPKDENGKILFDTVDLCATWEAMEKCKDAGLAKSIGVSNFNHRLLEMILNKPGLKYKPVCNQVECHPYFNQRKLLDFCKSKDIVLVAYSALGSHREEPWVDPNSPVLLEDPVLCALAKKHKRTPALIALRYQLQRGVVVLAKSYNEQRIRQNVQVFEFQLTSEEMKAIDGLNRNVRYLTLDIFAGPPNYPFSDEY
Source text: For enzymatic assays and inhibitor testing, all enzymes were cloned into bacterial or mammalian expression vectors. AKR1C3 and the human hydroxysteroid dehydrogenases HSD17B1, HSD17B2, HSD17B4 (SDR domain), HSD17B7, and HSD17B10 were cloned into a pGEX vector as described in [71, 72]. The coding sequences for AKR1C1, AKR1C2, and AKR1C4 were cloned by Gateway technology into the pcDNA3-N-MycDest vector according to the manufacturer’s instructions (Life Technologies, Carlsbad, CA, USA). The p11 plasmid coding for HSD17B14 (S205 variant) was a gift from Udo Opperman SGC Oxford, UK. For assays with HSD17B3, HEK293 cells stably expressing HSD17B3 were used. Enzymes were expressed in E. coli BL21 DE3 or E. coli BL21 DE3 Codon Plus RP (Stratagene, San Diego, CA, USA) or in HEK293 cells as described in [71, 72, 73]. Bacterial and cell pellets were stored at −20 °C and −80 °C, respectively, until use.
Inhibition assays were carried out as described in [71, 74]. […] For a detailed assay setup, see Supplementary Table S6. The incubation at 37 °C was stopped with 0.21 M ascorbic acid in methanol:acetic acid 99:1 (v:v) after the time needed to convert approximately 30% of the substrate in a control assay with 1% DMSO, without inhibitor candidate. Substrates and products were extracted from the reaction mixture by solid-phase extraction using C18 cartridges (Phenomenex, Aschaffenburg, Germany) and separated by RP–HPLC in a Beckman–Coulter HPLC Gold system, using the Luna 5 µm C18(2), 125 × 4.0 mm column (Phenomenex). […] Radioactivity was detected by online scintillation counting by using a radioactivity monitor (LB506D, Berthold Technologies, Bad Wildbad, Germany). Conversion of substrates to products was determined by integration of the peak area of the substrate and product peaks in percent. […]

[2] = test system: HEK293T cells; assay: Cell Titer Blue cell viability (cytotoxicity) assay; settings: 72 h, 1 µM to 100 µM tested
Experimental: For the cultivation of HEK293T cells, Dulbecco’s modified Eagle medium (DMEM, Pan Biotech GmbH, Aidenbach, Germany) supplemented with 10% FCS (Pan Biotech GmbH), 100 U/mL penicillin, and 100 µg/mL streptomycin (Pan Biotech GmbH) was used. The cells were cultured at 37 °C and 5% CO2 in constant humidity. Before cell seeding, culture flasks and multiwell plates were coated with collagen G (0.001% in PBS, Merck, Darmstadt, Germany).
For studying the cytotoxicity of the different chalcones and the positive control compounds cisplatin and etoposide on HEK293T cells, the Cell Titer® Blue (CTB) Cell Viability Assay was used (Promega, Mannheim, Germany). A total of 10,000 cells in a 200 µL culture medium were seeded into each well of a 96-well plate. Then, 24 h after seeding, the cells were treated with 0, 1, 2.5, 5, 7.5, 10, 15, 25, 50, or 100 µM of the different compounds (3 wells per compound and concentration) and incubated for an additional 72 h. For measurement of cell viability, 20 µL of CTB reagent were added to each well, and after 5 h at 37 °C, the metabolic activity was quantified by recording the fluorescence signal (λEx 560 nm, λEm 590 nm) on a Spark plate reader (Tecan Trading GmbH, Männedorf, Switzerland). […] Statistical significances were calculated by one-way ANOVA (Dunnett’s multiple comparison test), * p < 0.05, ** p < 0.005, *** p < 0.0002, **** p < 0.0001.

SMILES | Inhibition of AKR1C2 at 10 µM in % [1] | Inhibition of AKR1C2 at 10 µM in % ([1]; listed as 18 (MF11)) [%] | inhibition at 10 µM [1] [%] | Compound concentration at which HEK293T viability was significantly decreased [2] [µM]
COc1ccc(/C=C/C(=O)c2c(O)cc(O)cc2OC)cc1 [Compound 18] | not more than 42.3% | 21.4 ± 5.1 | – | –
O=C(/C=C/c1ccc(Cl)cc1Cl)c1c(O)cc(O)cc1O [Compound 23, 2,4-dichloro-2′,4′,6′-trihydroxychalcone] | – | – | 94 ± 0.4 | ≥ 50
COc1cc(O)cc(O)c1C(=O)/C=C/c1ccc(Cl)cc1Cl [Compound 25] | – | – | – | 7.5
